The values that follow come from patent US20250353891A1 (MEDIMMUNE LIMITED, priority 2022, published 2025).

Assay [1] has as its target human GLP-1 receptor (hGLP-1R) (Homo sapiens, UniProt P43220). Briefly: cAMP production (HTRF) in CHO cells expressing hGLP-1R. The assay is classed as cell-based. Set-up: expressed in transfected cells. The note with it: for % Relative Potency Ratio: % GLP-1R activity relative to GLP-1 / % GlucR activity relative to glucagon; for EC50: geometric mean, read-out: hGLP-1R EC50. The method in brief:
(§1)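 Potency values represent EC50 from 4-parameter logistic curves of HTRF % Delta F signal. Receptor-expressing CHO cells (hGCGR 2×10^5 cells/mL, hGLP-1R 1×10^5 cells/mL) were exposed for 30 min at room temperature before two-step cAMP detection.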
For orientation: cAMP levels reflect the balance of adenylyl cyclase and phosphodiesterase activity.

Assay [2] concerns the target human glucagon receptor (hGCGR) (Homo sapiens, UniProt P47871). Briefly: cAMP production (HTRF) in CHO cells expressing hGCGR. The following applies: geometric mean, read-out: hGluc-R EC50. Set-up: expressed in transfected cells. The assay is classed as cell-based. The method in brief:
as §1

[3] abbreviates: Table 6, peptides modified at position 17, cAMP in CHO hGLP-1R cells.
The mark [4] stands for this setting: Table 6, peptides modified at position 17, cAMP in CHO hGCGR cells.

Where two headings read alike, the source gives them in different places. Starred links: 1 amine or outer side, 2 acyl side, 3 side chain; linkers in the order of their positions; H or OH if unused. Non-standard residues stand in square brackets, D forms with d. Residues, ends and D or L forms follow the SMILES beside them. Groups on a side chain read outwards from the residue. *: point of attachment. C20 diacid = O=C(O)CCCCCCCCCCCCCCCCCCC(=O)*; C18 diacid = O=C(O)CCCCCCCCCCCCCCCCC(=O)*; γGlu = O=C(O)[C@H](CCC(=O)[*:2])N[*:1]; αMeF = C[C@](N)(Cc1ccccc1)C(=O)O; AEEA = NCCOCCOCC(=O)O; Aib = CC(C)(N)C(=O)O

Sequence of human GLP-1 receptor (hGLP-1R) (P43220 24-463): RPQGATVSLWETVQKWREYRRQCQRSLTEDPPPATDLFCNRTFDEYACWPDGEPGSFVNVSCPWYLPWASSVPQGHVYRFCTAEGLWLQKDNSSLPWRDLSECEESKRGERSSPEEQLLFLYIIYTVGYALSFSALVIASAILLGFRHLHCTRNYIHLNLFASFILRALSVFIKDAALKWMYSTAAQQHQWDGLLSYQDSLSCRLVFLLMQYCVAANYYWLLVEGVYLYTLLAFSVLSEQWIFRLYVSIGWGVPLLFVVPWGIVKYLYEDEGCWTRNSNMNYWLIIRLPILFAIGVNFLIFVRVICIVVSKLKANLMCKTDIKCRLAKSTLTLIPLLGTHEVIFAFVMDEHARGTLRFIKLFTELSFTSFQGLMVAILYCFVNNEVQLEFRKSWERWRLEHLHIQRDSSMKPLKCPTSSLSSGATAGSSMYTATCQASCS
Sequence of human glucagon receptor (hGCGR) (P47871 26-477): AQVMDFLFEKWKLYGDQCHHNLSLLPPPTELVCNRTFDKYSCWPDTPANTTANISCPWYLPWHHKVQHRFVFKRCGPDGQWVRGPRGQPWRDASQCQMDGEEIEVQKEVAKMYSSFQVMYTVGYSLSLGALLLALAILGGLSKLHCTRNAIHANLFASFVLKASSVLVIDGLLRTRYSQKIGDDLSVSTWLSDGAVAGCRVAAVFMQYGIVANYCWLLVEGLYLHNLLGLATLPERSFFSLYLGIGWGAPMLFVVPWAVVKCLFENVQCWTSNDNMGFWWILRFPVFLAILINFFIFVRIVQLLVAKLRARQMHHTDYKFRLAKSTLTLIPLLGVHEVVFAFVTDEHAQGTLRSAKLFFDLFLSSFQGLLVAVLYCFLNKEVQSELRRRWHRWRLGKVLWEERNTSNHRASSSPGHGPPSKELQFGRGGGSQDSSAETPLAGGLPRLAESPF

As usually defined, the EC50 is the concentration at which the effect is half-maximal. As to `CC[C@H](C)[C@H](NC(=O)[C@H](Cc1c[nH]c2ccccc12)NC(=O)[C@H](CCCCNC(=O)COCCOCCNC(=O)COCCOCCNC(=O)CC[C@H](NC(=O)CC[C@H](NC(=O)CCCCCCCCCCCCCCCCC(=O)O)C(=O)O)C(=O)O)NC(=O)[C@@H](NC(=O)[C@H](Cc1ccccc1)NC(=O)[C@H](CC(=O)O)NC(=O)[C@H](CCC(N)=O)NC(=O)[C@H](C)NC(=O)[C@H](C)NC(=O)[C@H](CCCNC(=N)N)NC(=O)[C@H](CO)NC(=O)[C@H](CC(=O)O)NC(=O)[C@H](CC(C)C)NC(=O)[C@](C)(Cc1ccccc1)NC(=O)[C@H](CCCCN)NC(=O)[C@H](CO)NC(=O)[C@@H](NC(=O)[C@H](CC(=O)O)NC(=O)[C@H](CO)NC(=O)[C@@H](NC(=O)[C@](C)(Cc1ccccc1)NC(=O)[C@H](CO)NC(=O)CNC(=O)[C@H](Cc1c[nH]cn1)NC(=O)C(C)(C)NC(=O)[C@@H](N)Cc1c[nH]cn1)[C@@H](C)O)C(C)C)C(C)C)C(=O)N[C@@H](C)C(=O)N[C@@H](CC(N)=O)C(=O)N[C@H](C(=O)NCC(N)=O)[C@@H](C)O` [Peptide 363] (H-H[Aib]HGS[αMeF]TSDVSK[αMeF]LDSRAAQDFVK([AEEA-AEEA-γGlu-γGlu-C18 diacid])WIANTG-NH2; N-terminus assumed), the “% Relative Potency Ratio” value in assay [1] turned out to be 5.1. Moreover, the EC50 is 0.0183 nM in assay [1] (cAMP, CHO cells, 0.1% BSA) and 0.0475 nM in assay [2] (cAMP, CHO cells, 0.1% BSA).
For the compound `CC(C)C[C@H](NC(=O)[C@H](Cc1c[nH]c2ccccc12)NC(=O)[C@H](CCCNC(=N)N)NC(=O)[C@@H](NC(=O)[C@H](Cc1ccccc1)NC(=O)[C@H](CC(=O)O)NC(=O)[C@H](CCC(N)=O)NC(=O)[C@H](C)NC(=O)[C@H](CCCNC(=N)N)NC(=O)[C@H](CCCCNC(=O)COCCOCCNC(=O)COCCOCCNC(=O)CC[C@H](NC(=O)CCCCCCCCCCCCCCCCC(=O)O)C(=O)O)NC(=O)[C@H](CO)NC(=O)[C@H](CC(=O)O)NC(=O)[C@H](CC(C)C)NC(=O)[C@](C)(Cc1ccccc1)NC(=O)[C@H](CCCCN)NC(=O)[C@H](CO)NC(=O)[C@@H](NC(=O)[C@H](CC(=O)O)NC(=O)[C@H](CO)NC(=O)[C@@H](NC(=O)[C@H](Cc1ccccc1)NC(=O)[C@@H](NC(=O)CNC(=O)[C@H](CCC(N)=O)NC(=O)C(C)(C)NC(=O)[C@@H](N)Cc1c[nH]cn1)[C@@H](C)O)[C@@H](C)O)C(C)C)C(C)C)C(=O)N[C@@H](CC(C)C)C(=O)NC(C)(C)C(=O)N[C@H](C(=O)N[C@@H](C)C(=O)O)[C@@H](C)O` [Peptide 176] (H-H[Aib]QGTFTSDVSK[αMeF]LDSK([AEEA-AEEA-γGlu-C18 diacid])RAQDFVRWLL[Aib]TA-OH; N-terminus assumed), the values for the EC50 in assay [1] (setting [3]) and in assay [2] (setting [4]) were 0.0599 nM and 0.48 nM, respectively. In assay [1] (Table 6), the “% Relative Potency Ratio” value worked out at 15.9.
On to `CC(C)C[C@H](NC(=O)[C@H](Cc1c[nH]c2ccccc12)NC(=O)[C@H](CCC(N)=O)NC(=O)[C@@H](NC(=O)[C@H](Cc1ccccc1)NC(=O)[C@H](CC(=O)O)NC(=O)[C@H](CCCNC(=N)N)NC(=O)[C@H](C)NC(=O)[C@H](C)NC(=O)[C@H](CCCCNC(=O)COCCOCCNC(=O)COCCOCCNC(=O)CC[C@H](NC(=O)CCCCCCCCCCCCCCCCCCC(=O)O)C(=O)O)NC(=O)[C@@H](NC(=O)[C@H](CC(=O)O)NC(=O)[C@H](CC(C)C)NC(=O)[C@](C)(Cc1ccccc1)NC(=O)[C@H](CCCCN)NC(=O)[C@H](CO)NC(=O)[C@@H](NC(=O)[C@H](CC(=O)O)NC(=O)[C@H](CO)NC(=O)[C@@H](NC(=O)[C@H](Cc1ccccc1)NC(=O)[C@@H](NC(=O)CNC(=O)[C@H](CCC(N)=O)NC(=O)C(C)(C)NC(=O)[C@@H](N)Cc1c[nH]cn1)[C@@H](C)O)[C@@H](C)O)C(C)C)[C@@H](C)O)C(C)C)C(=O)N[C@@H](CC(C)C)C(=O)N[C@@H](CCC(=O)O)C(=O)NC(C)(C)C(=O)NCC(N)=O` [Peptide 515] (H-H[Aib]QGTFTSDVSK[αMeF]LDTK([AEEA-AEEA-γGlu-C20 diacid])AARDFVQWLLE[Aib]G-NH2; N-terminus assumed), for which the EC50 in assay [1] (setting [3]) turned out to be 0.297 nM; in assay [2] (setting [4]), 2.66 nM. For the same compound, in assay [1] (Table 6), the “% Relative Potency Ratio” value was 17.7.
On to `CC(C)C[C@H](NC(=O)[C@H](Cc1c[nH]c2ccccc12)NC(=O)[C@H](CCC(N)=O)NC(=O)[C@@H](NC(=O)[C@H](Cc1ccccc1)NC(=O)[C@H](CC(=O)O)NC(=O)[C@H](CCCCNC(=O)COCCOCCNC(=O)COCCOCCNC(=O)CC[C@H](NC(=O)CCCCCCCCCCCCCCCCC(=O)O)C(=O)O)NC(=O)[C@H](C)NC(=O)[C@H](C)NC(=O)[C@H](CCCNC(=N)N)NC(=O)[C@H](CO)NC(=O)[C@H](CC(=O)O)NC(=O)[C@H](CC(C)C)NC(=O)[C@](C)(Cc1ccccc1)NC(=O)[C@H](CCCCN)NC(=O)[C@H](CO)NC(=O)[C@@H](NC(=O)[C@H](CC(=O)O)NC(=O)[C@H](CO)NC(=O)[C@@H](NC(=O)[C@H](Cc1ccccc1)NC(=O)[C@@H](NC(=O)CNC(=O)[C@H](CCC(N)=O)NC(=O)C(C)(C)NC(=O)[C@@H](N)Cc1c[nH]cn1)[C@@H](C)O)[C@@H](C)O)C(C)C)C(C)C)C(=O)N[C@H](C(=O)N[C@@H](CCC(=O)O)C(=O)N[C@H](C(N)=O)[C@@H](C)O)C(C)C` [Peptide 311], for which the 50% effective concentration (EC50) in assay [1] (Table 7, peptides modified at position 20, cAMP in CHO hGLP-1R cells) was determined as 0.0351 nM; in assay [2] (Table 7, peptides modified at position 20, cAMP in CHO hGCGR cells), 0.469 nM. Also, in assay [1] (Table 7), the “% Relative Potency Ratio” value was 26.4.
For `CC(C)C[C@H](NC(=O)[C@H](Cc1c[nH]c2ccccc12)NC(=O)[C@H](CCCNC(=N)N)NC(=O)[C@@H](NC(=O)[C@H](Cc1ccccc1)NC(=O)[C@H](CC(=O)O)NC(=O)[C@H](CCC(N)=O)NC(=O)[C@H](C)NC(=O)[C@H](CCCNC(=N)N)NC(=O)[C@H](CCCCNC(=O)COCCOCCNC(=O)COCCOCCNC(=O)CC[C@H](NC(=O)CCCCCCCCCCCCCCCCC(=O)O)C(=O)O)NC(=O)[C@H](CCCNC(=N)N)NC(=O)[C@H](CC(=O)O)NC(=O)[C@H](CC(C)C)NC(=O)[C@](C)(Cc1ccccc1)NC(=O)[C@H](CCCCN)NC(=O)[C@H](CO)NC(=O)[C@@H](NC(=O)[C@H](CC(=O)O)NC(=O)[C@H](CO)NC(=O)[C@@H](NC(=O)[C@H](Cc1ccccc1)NC(=O)[C@@H](NC(=O)CNC(=O)[C@H](CCC(N)=O)NC(=O)C(C)(C)NC(=O)[C@@H](N)Cc1c[nH]cn1)[C@@H](C)O)[C@@H](C)O)C(C)C)C(C)C)C(=O)N[C@@H](CC(C)C)C(=O)NC(C)(C)C(=O)N[C@@H](CCC(=O)O)C(N)=O` [Peptide 439] (H-H[Aib]QGTFTSDVSK[αMeF]LDRK([AEEA-AEEA-γGlu-C18 diacid])RAQDFVRWLL[Aib]E-NH2; N-terminus assumed), the concentration giving a half-maximal response (EC50) in assay [1] (setting [3]) was 0.0306 nM; in assay [2] (setting [4]), 0.0577 nM. Moreover, the “% Relative Potency Ratio” value in assay [1] (Table 6) stood at 3.7.
